Reference: patent publication US6562824B2, “Dihydropyridine soft drugs, and related compositions and methods” (Ortho-McNeil Pharmaceutical, Inc., priority 2000, dated 2003)

Each compound was assayed against T1, Calcium Channel (3H-nitrendipine binding site, heart membranes) (Oryctolagus cuniculus, UniProt P15381) (assay: Assay for Inhibition of Nitrendipine Binding (3H-nitrendipine, rabbit heart membranes)). Conditions: Table 1, Formula Ii compounds, 3H-nitrendipine 0.05-0.50 nM, 90 minutes.
T1 construct: from tissue; host or cells: rabbit heart membrane preparation
T1 sequence (P15381 whole entry): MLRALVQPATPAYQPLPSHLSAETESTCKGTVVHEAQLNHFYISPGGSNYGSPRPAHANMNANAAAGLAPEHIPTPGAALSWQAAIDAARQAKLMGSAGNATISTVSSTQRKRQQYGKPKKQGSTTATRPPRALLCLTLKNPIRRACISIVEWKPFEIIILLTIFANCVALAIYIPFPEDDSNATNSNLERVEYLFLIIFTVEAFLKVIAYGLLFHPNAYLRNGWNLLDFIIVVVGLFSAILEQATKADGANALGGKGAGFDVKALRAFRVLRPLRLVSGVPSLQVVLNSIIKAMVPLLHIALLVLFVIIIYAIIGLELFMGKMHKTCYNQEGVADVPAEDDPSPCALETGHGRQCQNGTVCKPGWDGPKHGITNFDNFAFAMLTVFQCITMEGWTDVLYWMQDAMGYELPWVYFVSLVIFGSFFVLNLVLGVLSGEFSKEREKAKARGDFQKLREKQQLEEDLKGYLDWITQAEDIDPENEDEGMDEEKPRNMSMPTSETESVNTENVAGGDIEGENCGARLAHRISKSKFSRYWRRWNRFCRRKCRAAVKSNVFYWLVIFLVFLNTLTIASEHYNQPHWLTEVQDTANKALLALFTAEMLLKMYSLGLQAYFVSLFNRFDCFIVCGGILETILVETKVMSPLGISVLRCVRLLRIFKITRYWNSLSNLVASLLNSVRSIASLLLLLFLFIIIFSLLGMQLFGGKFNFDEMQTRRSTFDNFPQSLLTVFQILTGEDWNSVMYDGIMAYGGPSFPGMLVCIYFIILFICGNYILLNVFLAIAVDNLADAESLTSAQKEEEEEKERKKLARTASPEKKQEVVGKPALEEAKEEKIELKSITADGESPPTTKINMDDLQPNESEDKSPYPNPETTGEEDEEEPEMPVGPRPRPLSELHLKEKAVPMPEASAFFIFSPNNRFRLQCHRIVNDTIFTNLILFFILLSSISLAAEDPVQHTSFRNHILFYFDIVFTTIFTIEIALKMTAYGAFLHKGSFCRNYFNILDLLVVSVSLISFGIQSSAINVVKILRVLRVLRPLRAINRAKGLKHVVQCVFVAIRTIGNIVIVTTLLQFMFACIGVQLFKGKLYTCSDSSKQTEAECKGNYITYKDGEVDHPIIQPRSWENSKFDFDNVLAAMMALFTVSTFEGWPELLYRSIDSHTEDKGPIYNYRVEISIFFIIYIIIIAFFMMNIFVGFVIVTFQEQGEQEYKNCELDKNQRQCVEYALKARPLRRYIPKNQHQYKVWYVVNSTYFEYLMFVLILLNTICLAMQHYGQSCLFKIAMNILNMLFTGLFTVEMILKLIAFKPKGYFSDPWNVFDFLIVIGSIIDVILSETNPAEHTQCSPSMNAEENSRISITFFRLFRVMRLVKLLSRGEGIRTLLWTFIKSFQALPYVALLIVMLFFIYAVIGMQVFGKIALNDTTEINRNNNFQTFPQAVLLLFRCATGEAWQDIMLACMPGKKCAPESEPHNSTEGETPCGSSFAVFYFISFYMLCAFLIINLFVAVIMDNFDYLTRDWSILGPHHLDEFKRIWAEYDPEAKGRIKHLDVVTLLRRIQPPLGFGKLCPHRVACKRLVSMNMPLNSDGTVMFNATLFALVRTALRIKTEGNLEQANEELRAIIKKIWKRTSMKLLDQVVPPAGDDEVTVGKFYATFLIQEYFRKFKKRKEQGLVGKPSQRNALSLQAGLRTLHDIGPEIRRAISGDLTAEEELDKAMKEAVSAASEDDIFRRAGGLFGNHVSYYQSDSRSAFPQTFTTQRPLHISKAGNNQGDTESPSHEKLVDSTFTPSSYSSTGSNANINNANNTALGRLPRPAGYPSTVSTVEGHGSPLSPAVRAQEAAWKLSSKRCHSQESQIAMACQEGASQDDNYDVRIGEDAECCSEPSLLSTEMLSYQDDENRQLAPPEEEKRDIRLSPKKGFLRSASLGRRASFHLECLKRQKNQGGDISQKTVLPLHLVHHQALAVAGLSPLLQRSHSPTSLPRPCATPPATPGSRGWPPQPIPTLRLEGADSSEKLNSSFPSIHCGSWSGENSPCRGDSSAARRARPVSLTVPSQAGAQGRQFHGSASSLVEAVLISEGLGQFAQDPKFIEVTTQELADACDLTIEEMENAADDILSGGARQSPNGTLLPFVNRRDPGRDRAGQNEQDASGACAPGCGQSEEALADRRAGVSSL
Procedure: Female, New Zealand white rabbits (1-2 kg) are sacrificed by cervical dislocation, and the heart is immediately removed, cleaned and chopped into small pieces. The tissue is homogenized in 5× times volume of 0.05M Hepes buffer, pH 7.4. The homogenate is centrifuged at 4000g for 10 minutes, and the supernatant is re-centrifuged at 42,000× g for 90 minutes. The resulting membrane pellet is resuspended (0.7 ml/g weight) in 0.05M Hepes, pH 7.4 and stored at […] until used. Each tube of the binding assay contains ^3H-nitrendipine (0.05-0.50 nM), buffer, membranes (0.10 ml), and test compound in a total volume of 1.0 ml. After 90 minutes at 4≦ C., the bound nitrendipine is separated from the unbound by filtration on Whatman GF/C filters. After rinsing, the filters are dried and counted in a liquid scintillation counter.
Non-specific binding of ^3H-nitrendipine (that amount bound in the presence of excess unlabelled nitrendipine) is subtracted from the total bound to obtain specifically bound radiolabeled nitrendipine. The amount of specifically bound nitrendipine in the presence of a test compound is compared to that amount bound in the absence of a compound. A percent displacement (or inhibition) can then be calculated.

Compound | IC50
CC1=C(C(=O)OCCOC(=O)C(CCCCNC(=O)OCc2ccccc2)NC(=O)OC(C)(C)C)C(c2c(F)cccc2Cl)C2=C(CS(=O)(=O)CCS2(=O)=O)N1 (centres unmarked) [Compound 29] | 175 nM
COc1ccc(C(=O)OCCOC(=O)C2=C(C)NC3=C(C2c2c(F)cccc2Cl)S(=O)(=O)CCS(=O)(=O)C3)cc1 (centres unmarked) [Compound 20] | 69 nM
CC1=C(C(=O)OCCOC(=O)CCN2CCCCC2)C(c2c(F)cccc2Cl)C2=C(CS(=O)(=O)CCS2(=O)=O)N1 (centres unmarked) [Compound 63] | 49000 nM
CC1=C(C(=O)OCCOC(=O)C2CCOC2=O)C(c2c(F)cccc2Cl)C2=C(CS(=O)(=O)CCS2(=O)=O)N1 (centres unmarked) [Compound 62] | 19400 nM
CC1=C(C(=O)OCCOC(=O)C(N)CCCCN)C(c2c(F)cccc2Cl)C2=C(CS(=O)(=O)CCS2(=O)=O)N1 (single isomer, unassigned) [Compound 64] | 51000 nM
CC1=C(C(=O)OCCOC(=O)CCc2ccccc2)C(c2c(F)cccc2Cl)C2=C(CS(=O)(=O)CCS2(=O)=O)N1 (centres unmarked) [Compound 12] | 48 nM
CC1=C(C(=O)OC2CCOC2=O)C(c2cccc(Cl)c2Cl)C2=C(CS(=O)(=O)CCS2(=O)=O)N1 (centres unmarked) [Compound 43] | 456 nM
CC1=C(C(=O)OCCOC(=O)C(Cc2ccccc2)N(C)C)C(c2c(F)cccc2Cl)C2=C(CS(=O)(=O)CCS2(=O)=O)N1 (centres unmarked) [Compound 45] | 541 nM
CC1=C(C(=O)OCCOC(=O)C(NC(=O)OC(C)(C)C)C(C)C)C(c2c(F)cccc2Cl)C2=C(CS(=O)(=O)CCS2(=O)=O)N1 (centres unmarked) [Compound 40] | 405 nM
CC1=C(C(=O)OCCOC(=O)C(C)C)C(c2c(F)cccc2Cl)C2=C(CS(=O)(=O)CCS2(=O)=O)N1 (centres unmarked) [Compound 56] | 2320 nM
CC1=C(C(=O)OCCOC(=O)C(Cc2ccccc2)NC(=O)c2ccccc2)C(c2c(F)cccc2Cl)C2=C(CS(=O)(=O)CCS2(=O)=O)N1 (centres unmarked) [Compound 38] | 358 nM
CC1=C(C(=O)OCc2oc(=O)oc2C)C(c2cccc(Cl)c2Cl)C2=C(CS(=O)(=O)CCS2(=O)=O)N1 (centres unmarked) [Compound 21] | 72 nM
CC1=C(C(=O)OCCOC(=O)c2cccnc2)C(c2c(F)cccc2Cl)C2=C(CS(=O)(=O)CCS2(=O)=O)N1 (centres unmarked) [Compound 44] | 505 nM
CC1=C(C(=O)OCCOC(=O)c2ccc(C(F)(F)F)cc2)C(c2c(F)cccc2Cl)C2=C(CS(=O)(=O)CCS2(=O)=O)N1 (centres unmarked) [Compound 11, 5H-[1,4]dithiepino[6,5-b]pyridine-8-carboxylic acid, 9-(2-chloro-6-fluorophenyl)-2,3,6,9-tetrahydro-7-methyl-, 2-[[4-(trifluoromethyl)benzoyl]oxy]ethyl ester, 1,1,4,4-tetraoxide] | 48 nM
CC1=C(C(=O)OCCOC(=O)c2cccc(C#N)c2)C(c2c(F)cccc2Cl)C2=C(CS(=O)(=O)CCS2(=O)=O)N1 (centres unmarked) [Compound 18] | 61 nM

Same assay, conditions: Table 2, Formula Ij compounds, 3H-nitrendipine 0.05-0.50 nM, 90 minutes

Compound | IC50
CC1=C(C(=O)OCCOC(=O)c2cccc(C#N)c2)C(c2c(F)cccc2Cl)C2=C(CS(=O)(=O)CCCS2(=O)=O)N1 (centres unmarked) [Compound 68, 2H,6H-[1,5]dithiocino[3,2-b]pyridine-9-carboxylic acid, 10-(2-chloro-6-fluorophenyl)-3,4,7,10-tetrahydro-8-methyl-, 2-[(3-cyanobenzoyl)oxy]ethyl ester, 1,1,5,5-tetraoxide] | 49 nM
CC1=C(C(=O)OCCOC(=O)C2CCCCC2)C(c2c(F)cccc2Cl)C2=C(CS(=O)(=O)CCCS2(=O)=O)N1 (centres unmarked) [Compound 70, 2H,6H-[1,5]dithiocino[3,2-b]pyridine-9-carboxylic acid, 10-(2-chloro-6-fluorophenyl)-3,4,7,10-tetrahydro-8-methyl-, 2-[(cyclohexylcarbonyl)oxy]ethyl ester, 1,1,5,5-tetraoxide] | 65 nM
